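Where inhibition never reached the appropriate level, the endpoint shown equals the highest concentration tested. Otherwise, values were interpolated linearly from a five-concentration, 48-hour dose response in 96-well plates. TGI: total growth inhibition.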

Among the test systems are OVCAR-8 ovarian; NCI/ADR-RES ovarian; K-562 leukemia; SK-MEL-5 melanoma; U251 CNS; HOP-92 NSCLC; UO-31 renal; CAKI-1 renal; HCT-15 colon; UACC-62 melanoma; IGROV1 ovarian; SK-OV-3 ovarian; PC-3 prostate; SK-MEL-2 melanoma; HOP-62 NSCLC; SR leukemia; SNB-75 CNS.
Holding throughout (assay): NCI-60 cell line screen, 48 h

As to `O=c1[nH]nc(Cc2ccc(Cl)cc2)n1CCO`, the TGI in the assay with OVCAR-8 ovarian, in the assay with NCI/ADR-RES ovarian, in the assay with K-562 leukemia, in the assay on SK-MEL-5 melanoma, in the assay with U251 CNS and with HOP-92 NSCLC was greater than 100 µM in each case. Moreover, the TGI in the assay on UO-31 renal, in the assay with CAKI-1 renal, in the assay with HCT-15 colon, in the assay on UACC-62 melanoma, with IGROV1 ovarian and in the assay with SK-OV-3 ovarian was greater than 100 µM throughout. The TGI in the assay on PC-3 prostate and in the assay with SK-MEL-2 melanoma was greater than 100 µM each time.
Take `O=C1/C(=C\c2cccc(Oc3ccccc3)c2)SC(c2ccccc2)N1Cc1ccccc1` (centres undefined): the TGI with OVCAR-8 ovarian was 68.9 µM; with NCI/ADR-RES ovarian, 74.4 µM; in the assay on HOP-62 NSCLC it was greater than 100 µM; in the assay with SR leukemia, 56.8 µM; in the assay with K-562 leukemia, greater than 100 µM; in the assay with SK-MEL-5 melanoma, 28 µM. Moreover, the TGI is 64.4 µM in the assay with U251 CNS; 60 µM in the assay with HOP-92 NSCLC; greater than 100 µM with UO-31 renal; greater than 100 µM in the assay with CAKI-1 renal; greater than 100 µM with HCT-15 colon; greater than 100 µM in the assay with UACC-62 melanoma. For the same compound, the TGI stood at 71.9 µM in the assay on SK-OV-3 ovarian and 45.7 µM in the assay with SK-MEL-2 melanoma.
For the compound `OCCCN=C1N=C(Cl)/C(=C\c2ccccc2)N1`, the TGI in the assay on OVCAR-8 ovarian, in the assay on NCI/ADR-RES ovarian, in the assay on SR leukemia, in the assay on K-562 leukemia, in the assay on SNB-75 CNS and with SK-MEL-5 melanoma was greater than 100 µM each time. Besides, the TGI in the assay with U251 CNS, with HOP-92 NSCLC, with UO-31 renal, with CAKI-1 renal, in the assay on HCT-15 colon and with IGROV1 ovarian was greater than 100 µM each time. The TGI with SK-OV-3 ovarian was greater than 100 µM.
In the case of `COc1ccc(C2S/C(=C\c3ccc([N+](=O)[O-])cc3)C(=O)N2NC(=O)Cc2ccccc2)cc1` (centres undefined), the TGI in the assay on OVCAR-8 ovarian, with HOP-62 NSCLC, in the assay with SR leukemia, in the assay on K-562 leukemia, in the assay on SNB-75 CNS and in the assay on SK-MEL-5 melanoma was greater than 100 µM in each case. Further, the TGI with U251 CNS, with HOP-92 NSCLC, with UO-31 renal, in the assay on CAKI-1 renal, in the assay on HCT-15 colon and in the assay on UACC-62 melanoma was greater than 100 µM throughout. Further, the TGI in the assay with IGROV1 ovarian, in the assay with SK-OV-3 ovarian and in the assay on SK-MEL-2 melanoma was greater than 100 µM throughout.
In the case of `O=C(Cc1ccccc1)N/N=C(/c1nc2ccc([N+](=O)[O-])cc2[nH]c1=O)C(O)c1ccco1` (centres undefined), the TGI with OVCAR-8 ovarian, with HOP-62 NSCLC, in the assay with SR leukemia, with K-562 leukemia, with SNB-75 CNS and in the assay on SK-MEL-5 melanoma was greater than 100 µM in each case. In addition, the TGI in the assay on U251 CNS, with HOP-92 NSCLC, in the assay with UO-31 renal, with CAKI-1 renal, with HCT-15 colon and in the assay on UACC-62 melanoma was greater than 100 µM in each case. The TGI in the assay with IGROV1 ovarian, in the assay with SK-OV-3 ovarian and in the assay on SK-MEL-2 melanoma was greater than 100 µM each time.
In the case of `C[C@@H]1C[C@@H]2C(=O)N(c3ccccc3)C(=O)[C@@H]2c2[nH]c3ccc(Br)cc3c21`, the TGI in the assay with OVCAR-8 ovarian is 47.1 µM; in the assay with HOP-62 NSCLC it was 47.6 µM; in the assay on SR leukemia, greater than 100 µM; with K-562 leukemia it was greater than 100 µM; in the assay with SNB-75 CNS, 41.9 µM; in the assay with SK-MEL-5 melanoma it was greater than 100 µM. The TGI with U251 CNS was 38.8 µM; in the assay on HOP-92 NSCLC it was 62.2 µM; in the assay on UO-31 renal, greater than 100 µM; in the assay with CAKI-1 renal it was greater than 100 µM; in the assay on HCT-15 colon, greater than 100 µM; in the assay on UACC-62 melanoma it was greater than 100 µM. In addition, the TGI with IGROV1 ovarian was greater than 100 µM; with SK-OV-3 ovarian, 44.5 µM; with SK-MEL-2 melanoma it was greater than 100 µM.
With `C/C=C/C(O)P(=O)(OC)OC` (centres undefined), the TGI in the assay on OVCAR-8 ovarian is 1.78 µM; in the assay with HOP-62 NSCLC, 2.23 µM; with SR leukemia, greater than 100 µM; in the assay on K-562 leukemia, 2.63 µM; in the assay with SNB-75 CNS, 1.49 µM; in the assay with SK-MEL-5 melanoma it was 0.483 µM. The TGI was 0.872 µM with U251 CNS; 0.27 µM in the assay on HOP-92 NSCLC; 0.334 µM with UO-31 renal; 1.85 µM in the assay with CAKI-1 renal; 1.06 µM in the assay with HCT-15 colon; 0.785 µM in the assay on UACC-62 melanoma. In addition, the TGI in the assay on IGROV1 ovarian was determined as 1.01 µM; in the assay on SK-OV-3 ovarian it was 2.51 µM; in the assay with PC-3 prostate it was 1.43 µM; in the assay on SK-MEL-2 melanoma, 1 µM.
Regarding `CNc1cc(Cl)ccc1C(=O)N1CCC[C@H]1CO`, the TGI in the assay on OVCAR-8 ovarian, in the assay on NCI/ADR-RES ovarian, in the assay on HOP-62 NSCLC, in the assay on SNB-75 CNS, with SK-MEL-5 melanoma and in the assay on U251 CNS was greater than 100 µM in each case. The TGI in the assay on UO-31 renal, in the assay on CAKI-1 renal, in the assay on HCT-15 colon, in the assay on UACC-62 melanoma, with IGROV1 ovarian and in the assay on SK-OV-3 ovarian was greater than 100 µM in each case. Further, the TGI in the assay on PC-3 prostate and in the assay on SK-MEL-2 melanoma was greater than 100 µM each time.
For `CN(C)CCSC(=Nc1ccccc1)n1cccc1`, the TGI is greater than 100 µM in the assay with OVCAR-8 ovarian; greater than 100 µM in the assay on HOP-62 NSCLC; greater than 100 µM in the assay with SR leukemia; greater than 100 µM in the assay with K-562 leukemia; 96.4 µM in the assay with SNB-75 CNS; greater than 100 µM in the assay on SK-MEL-5 melanoma. Moreover, the TGI in the assay on U251 CNS was greater than 100 µM; in the assay with HOP-92 NSCLC, 82.1 µM; with UO-31 renal it was greater than 100 µM; in the assay with CAKI-1 renal, greater than 100 µM; in the assay on HCT-15 colon, greater than 100 µM; with UACC-62 melanoma it was greater than 100 µM. Moreover, the TGI with IGROV1 ovarian, with SK-OV-3 ovarian and in the assay with SK-MEL-2 melanoma was greater than 100 µM each time.
In the case of `NC(=S)N/N=C(/CCN1CCCC1)CC(C1=C(O)C2=CCCCC2OC1=O)c1ccccc1` (centres undefined), the TGI with OVCAR-8 ovarian, with HOP-62 NSCLC, in the assay with SR leukemia, in the assay on K-562 leukemia, in the assay with SNB-75 CNS and in the assay on SK-MEL-5 melanoma was greater than 100 µM throughout. The TGI in the assay with U251 CNS, in the assay with HOP-92 NSCLC, in the assay with UO-31 renal, in the assay with CAKI-1 renal, in the assay with HCT-15 colon and in the assay with UACC-62 melanoma was greater than 100 µM each time. Further, the TGI in the assay on IGROV1 ovarian, in the assay with SK-OV-3 ovarian and in the assay with SK-MEL-2 melanoma was greater than 100 µM each time.
Take `Cc1ccc(C2SCc3nc4ccccc4n32)cc1` (centres undefined): the TGI stood at 30 µM in the assay with OVCAR-8 ovarian; 12.5 µM in the assay on NCI/ADR-RES ovarian; 23.7 µM in the assay on HOP-62 NSCLC; 14.8 µM with K-562 leukemia; 0.0817 µM with SNB-75 CNS; 5.28 µM in the assay on SK-MEL-5 melanoma. The TGI in the assay with U251 CNS is greater than 100 µM; in the assay with HOP-92 NSCLC, 70 µM; with UO-31 renal it was 22.6 µM; in the assay on CAKI-1 renal, 49.7 µM; with UACC-62 melanoma, 21.3 µM; with IGROV1 ovarian it was greater than 100 µM. Also, the values for the TGI in the assay with SK-OV-3 ovarian, in the assay on PC-3 prostate and in the assay on SK-MEL-2 melanoma were 85.8 µM, 21.2 µM and 5.56 µM, respectively.
As for `CC(=O)OCc1ncccc1C(OC(C)=O)OC(C)=O`, the TGI in the assay with OVCAR-8 ovarian, with HOP-62 NSCLC, in the assay on SR leukemia, with K-562 leukemia, in the assay on SNB-75 CNS and with SK-MEL-5 melanoma was greater than 100 µM each time. Further, the TGI in the assay on U251 CNS, in the assay with HOP-92 NSCLC, in the assay on UO-31 renal, with CAKI-1 renal, in the assay with HCT-15 colon and in the assay with UACC-62 melanoma was greater than 100 µM throughout. For the same compound, the TGI in the assay with IGROV1 ovarian, with SK-OV-3 ovarian and with SK-MEL-2 melanoma was greater than 100 µM each time.
As to `CCOc1cc2cnc3c4cc(OC)c(OC)cc4ccc3c2cc1OC`, the TGI in the assay on OVCAR-8 ovarian, with HOP-62 NSCLC, in the assay on SR leukemia, with K-562 leukemia, in the assay on SNB-75 CNS and in the assay on SK-MEL-5 melanoma was greater than 100 µM in each case. Also, the TGI with U251 CNS, with HOP-92 NSCLC, in the assay with UO-31 renal, in the assay on CAKI-1 renal, with HCT-15 colon and in the assay with UACC-62 melanoma was greater than 100 µM each time. In addition, the TGI in the assay with IGROV1 ovarian, in the assay with SK-OV-3 ovarian and with SK-MEL-2 melanoma was greater than 100 µM throughout.
For the compound `COc1ccc(-c2n[nH]c3nc4ccccc4n3c2=O)cc1`, the TGI in the assay with OVCAR-8 ovarian, in the assay on NCI/ADR-RES ovarian, with HOP-62 NSCLC, in the assay on SNB-75 CNS, in the assay on SK-MEL-5 melanoma and in the assay with U251 CNS was greater than 100 µM each time. Further, the TGI with HOP-92 NSCLC, with UO-31 renal, in the assay with CAKI-1 renal, with HCT-15 colon, in the assay with IGROV1 ovarian and in the assay on PC-3 prostate was greater than 100 µM each time. Also, the TGI in the assay with SK-MEL-2 melanoma was greater than 100 µM.

These data come from PubChem BioAssay (NCI).
